Results as given in ChEMBL document CHEMBL1649554, “Specific therapeutic schemes of omeprazole affect the orientation of Helicobacter pylori” (Antimicrob Agents Chemother, 2009).
The source made the active and inactive calls. The calls are words filed in the database; no cut-off is given here.

Assays:
[1] = tested on: Helicobacter pylori; test: (§1) Antibacterial activity against Helicobacter pylori SS1 infected in Mongolian gerbils assessed as bacterial density in mucus in central mucus layer at 0.25 mg, ip administered as two doses in 8 hrs dosing interval measured after 90 mins post last dose (reference value: 90+/-60 bacteria per nl of mucus); assay type: functional
[2] = tested on: Helicobacter pylori; test: as §1, with “15 to 25 um above the Juxtamucosal” for “central mucus”, “24” for “8”, “2280+/-430” for “90+/-60”; assay type: functional
[3] = tested on: Helicobacter pylori; test: Antibacterial activity against Helicobacter pylori SS1 infected in Mongolian gerbils assessed as bacterial disorientation in 0 to 15 um above the Juxtamucosal layer at 0.25 mg, ip administered as two doses in 8 hrs dosing interval measured after 90 mins post last dose; assay type: functional, organism-based
[4] = Cmax in Mongolian gerbils plasma; assay type: ADME, Meriones unguiculatus; conditions: gerbil
[5] = tested on: Helicobacter pylori; test: Antibacterial activity against Helicobacter pylori SS1 infected in Mongolian gerbils assessed as bacterial density in mucus in central mucus layer at 100 uM, ip administered as single dose through dialysis measured after 90 mins post last dose; assay type: functional
[6] = tested on: Helicobacter pylori; test: Antibacterial activity against Helicobacter pylori SS1 infected in Mongolian gerbils assessed as bacterial orientation in 0 to 15 um above the Juxtamucosal layer at 35 ug/ml administered as single dose in 8 hrs dosing interval; assay type: functional, organism-based
[7] = tested on: Helicobacter pylori; test: Antibacterial activity against Helicobacter pylori SS1 infected in Mongolian gerbils assessed as bacterial disorientation in luminal mucus layer at 0.25 mg, ip administered as two doses in 8 hrs dosing interval measured after 90 mins post last dose; assay type: functional, organism-based
[8] = tested on: Helicobacter pylori; test: Antibacterial activity against Helicobacter pylori SS1 infected in Mongolian gerbils assessed as bacterial disorientation in 15 to 25 um above the Juxtamucosal layer at 20 uM, ip administered as single dose through dialysis measured after 90 mins post last dose; assay type: functional, organism-based
[9] = tested on: Helicobacter pylori; test: as §1, with “luminal” for “central”, “60+/-50” for “90+/-60”; assay type: functional
[10] = tested on: Helicobacter pylori; test: Antibacterial activity against Helicobacter pylori SS1 infected in Mongolian gerbils assessed as bacterial disorientation in central mucus layer at 0.25 mg, ip followed by second dose administered as solvent in 24 hrs dosing interval measured after 90 mins post last dose; assay type: functional, organism-based
[11] = tested on: Helicobacter pylori; test: (§2) Antibacterial activity against Helicobacter pylori SS1 infected in Mongolian gerbils assessed as bacterial density in mucus in 0 to 15 um above the Juxtamucosal layer at 20 uM, ip administered as single dose through dialysis measured after 90 mins post last dose (reference value: 4560+/-400 bacteria per nl of mucus); assay type: functional
[12] = tested on: Helicobacter pylori; test: Antibacterial activity against Helicobacter pylori SS1 infected in Mongolian gerbils assessed as decrease in bacterial density in mucus in 0 to 15 um above the Juxtamucosal layer at 0.25 mg, ip administered as single dose for 5 days measured after 90 mins post last dose; assay type: functional; design: scale not given: the % may be the effect or the level left
[13] = tested on: Helicobacter pylori; test: as §1, with “15 to 25 um above the Juxtamucosal” for “central mucus”, “ip followed by second dose” for “ip”, “solvent” for “two doses”, “24” for “8”, “2280+/-430” for “90+/-60”; assay type: functional
[14] = tested on: Helicobacter pylori; test: as §2, with “disorientation” for “density in mucus”, “0.25 mg,” for “20 uM,”, “two doses of solvent” for “single dose through dialysis”; assay type: functional, organism-based
[15] = tested on: Helicobacter pylori; test: Antibacterial activity against Helicobacter pylori SS1 infected in Mongolian gerbils assessed as bacterial orientation in 15 to 25 um above the Juxtamucosal layer at 35 ug/ml administered as single dose in 8 hrs dosing interval; assay type: functional, organism-based
[16] = tested on: Helicobacter pylori; test: Antibacterial activity against Helicobacter pylori SS1 infected in Mongolian gerbils assessed as bacterial orientation in luminal mucus layer at 35 ug/ml administered as single dose in 8 hrs dosing interval; assay type: functional, organism-based
[17] = tested on: Helicobacter pylori; test: Antibacterial activity against Helicobacter pylori SS1 infected in Mongolian gerbils assessed as bacterial orientation in 0 to 15 um above the Juxtamucosal layer at 0.25 mg, ip administered as two subsequent doses in 8 hrs dosing interval; assay type: functional, organism-based
[18] = tested on: Helicobacter pylori; test: as §1, with “luminal” for “central”, “24” for “8”, “60+/-50” for “90+/-60”; assay type: functional
[19] = tested on: Helicobacter pylori; test: Antibacterial activity against Helicobacter pylori SS1 infected in Mongolian gerbils assessed as bacterial orientation in 15 to 25 um above the Juxtamucosal layer at 0.25 mg, ip administered as two subsequent doses in 8 hrs dosing interval; assay type: functional, organism-based
[20] = tested on: Helicobacter pylori; test: as §1, with “doses of solvent” for “doses”, “24” for “8”; assay type: functional
[21] = tested on: Helicobacter pylori; test: Antibacterial activity against Helicobacter pylori SS1 infected in Mongolian gerbils assessed as bacterial orientation in central layer at 0.25 mg, ip administered as two subsequent doses in 8 hrs dosing interval; assay type: functional, organism-based
[22] = tested on: Helicobacter pylori; test: Antibacterial activity against Helicobacter pylori SS1 infected in Mongolian gerbils assessed as bacterial disorientation in central mucus layer at 20 uM, ip administered as single dose through dialysis measured after 90 mins post last dose; assay type: functional, organism-based
[23] = tested on: Helicobacter pylori; test: as §1, with “0 to 15 um above the Juxtamucosal” for “central mucus”, “24” for “8”, “4560+/-400” for “90+/-60”; assay type: functional
[24] = tested on: Helicobacter pylori; test: Antibacterial activity against Helicobacter pylori SS1 infected in Mongolian gerbils assessed as bacterial disorientation in luminal mucus layer at 0.25 mg, ip administered as two doses in 24 hrs dosing interval measured after 90 mins post last dose; assay type: functional, organism-based
[25] = tested on: Helicobacter pylori; test: as §1, with “ip followed by second dose” for “ip”, “solvent” for “two doses”, “24” for “8”; assay type: functional
[26] = tested on: Helicobacter pylori; test: as §1, with “15 to 25 um above the Juxtamucosal” for “central mucus”, “doses of solvent” for “doses”, “24” for “8”, “2280+/-430” for “90+/-60”; assay type: functional
[27] = tested on: Helicobacter pylori; test: Antibacterial activity against Helicobacter pylori SS1 infected in Mongolian gerbils assessed as bacterial orientation in central layer at 35 ug/ml administered as single dose in 8 hrs dosing interval; assay type: functional, organism-based
[28] = tested on: Helicobacter pylori; test: Antibacterial activity against Helicobacter pylori SS1 infected in Mongolian gerbils assessed as bacterial orientation in luminal mucus layer at 0.25 mg, ip administered as two subsequent doses in 8 hrs dosing interval; assay type: functional, organism-based

With COc1ccc2[nH]c([S+]([O-])Cc3ncc(C)c(OC)c3C)nc2c1 (stereo not drawn) [OMEPRAZOLE] the Activity [1] was 30 nL⁻¹, the Activity [2] was 2230 nL⁻¹ and the Activity [3] was “Active”. The Cmax [4] was 10 µM, the Activity [5] was 60 nL⁻¹ and the Activity [6] was “inactive”. The Activity [7] was “inactive”, the Activity [8] was “inactive” and the Activity [9] was 30 nL⁻¹. For the same molecule, the Activity [10] was “inactive”, the Activity [11] was 5050 nL⁻¹ and the Activity [12] was 5%. The Activity [13] was 2030 nL⁻¹, the Activity [14] was “Active” and the Activity [15] was “inactive”. The Activity [16] was “inactive”, the Activity [17] was “inactive” and the Activity [18] was 120 nL⁻¹. For the same molecule, the Activity [19] was “inactive”, the Activity [20] was 40 nL⁻¹ and the Activity [21] was “inactive”. For the same molecule, the Activity [22] was “inactive”, the Activity [23] was 3310 nL⁻¹ and the Activity [24] was “inactive”. For the same molecule, the Activity [25] was 140 nL⁻¹, the Activity [26] was 2260 nL⁻¹ and the Activity [27] was “inactive”. The Activity [28] was “inactive”.
